Assay results: US10457707B2, “Substituted urea depsipeptide analogs as activators of the CLPP endopeptidase” (priority 2015, dated 2019)
Values after ≈ are worked out from the molar mass of the structure shown. Read-outs that look alike come from different tables or passages of the source. *1 amine or outer side, *2 acyl side, *3 side chain or, on linkers, in order; H or OH if unused. Where a SMILES comes first, the peptide text is derived from it. Bridges are numbered along the chain shown (N, C = ends). [ ]: non-standard residue; d: D form. The star is where a group is joined. Piperazine(2S-CO,4-Me) = CN1CCN[C@H](C(=O)O)C1; Phe(3,5-F2) = N[C@@H](Cc1cc(F)cc(F)c1)C(=O)O; NH(1-Me-indolin-5-yl) = CN1CCc2cc(N*)ccc21; NMepT = CN[C@H](C(=O)O)[C@@H](C)OP(=O)(O)O; NH(4-OCF3-phenyl) = FC(F)(F)Oc1ccc(N*)cc1; Morpholine(3S-CO) = O=C(O)[C@@H]1COCCN1; Pro(4S-Me) = C[C@@H]1CN[C@H](C(=O)O)C1; NH(4-Cl-2-F-phenyl) = Fc1cc(Cl)ccc1N*; Pro(4R-Me) = C[C@H]1CN[C@H](C(=O)O)C1; NH(4-Et-phenyl) = CCc1ccc(N*)cc1; NMeT = CN[C@H](C(=O)O)[C@@H](C)O; NH(4-Me-phenyl) = Cc1ccc(N*)cc1; aThr = C[C@H](O)[C@H](N)C(=O)O; Pip = O=C(O)[C@@H]1CCCCN1; X2 = CN1CCc2ccc(N*)cc21; CO = O=C([*:1])[*:2]

What was measured:
[1] = system: Staphylococcus aureus, ATCC 29213; experiment: Minimal inhibitory concentration assay (microbroth dilution); format: cell-based; conditions: ATCC29213, read-out: Minimal Inhibitory Concentrations S. aureus ATCC 29213
Method in brief: (§1)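 Broth microdilution per CLSI M7-A7: two-fold serial dilutions of compound in broth (top final concentration 200 μM) were inoculated with ~10^5 cfu/mL bacteria and incubated aerobically overnight at 37 °C. MIC was read visually as the lowest concentration preventing growth.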

[2] = system: Staphylococcus aureus, NRS70; experiment: as above; format: cell-based
Method in brief: as §1

[3] = system: Bacillus subtilis, ATCC 23857; experiment: as above; format: cell-based
Method in brief: as §1

[4] = system: Streptococcus pyogenes, ATCC 700294; experiment: as above; format: cell-based
Method in brief: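 CLSI broth microdilution: two-fold serial compound dilutions in appropriate broth, inoculated and incubated aerobically overnight at 37° C. MIC read visually as lowest concentration preventing bacterial growth.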

Sa-ClpP = target: T1, Sa-ClpP (Staphylococcus aureus, UniProt Q2G036); experiment: ADEP displacement fluorescence polarization assay (FP probe ADEP 2591); format: binding
T1 construct: made in house; host or cells: E. coli BL21(DE3)
T1 sequence (Q2G036 1-195): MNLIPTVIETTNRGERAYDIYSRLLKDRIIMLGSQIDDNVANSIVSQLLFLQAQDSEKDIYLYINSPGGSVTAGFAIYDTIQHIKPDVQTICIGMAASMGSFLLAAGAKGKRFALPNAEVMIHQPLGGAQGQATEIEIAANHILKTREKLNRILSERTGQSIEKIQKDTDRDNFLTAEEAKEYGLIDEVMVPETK
Method in brief: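 Master mix of 15 μM S. aureus ClpP with 50 nM TAMRA-labelled ADEP 2591 probe in Tris-HCl pH 8.0, 2% DMSO, was pre-equilibrated 1 h, then incubated with compound 120 min at room temperature. Polarization (ex 530, em 579 nm) was normalized to 200 μM ADEP 2378 and DMSO controls; four-parameter fits, triplicate.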

[5] = Staphylococcus aureus, NRS70, read-out: Minimal Inhibitory Concentrations S. aureus NRS70
[6] = Bacillus subtilis, ATCC23857, read-out: Minimal Inhibitory Concentrations B. subtilis ATCC 23857
[7] = Streptococcus pyogenes, ATCC700294, read-out: Minimal Inhibitory Concentrations S. pyogenes ATCC 700294
[8] = Staphylococcus aureus, NRS70; read-out: Minimal Inhibitory Concentrations S. aureus NRS70
[9] = Bacillus subtilis, ATCC23857; read-out: Minimal Inhibitory Concentrations B. subtilis ATCC 23857
[10] = Streptococcus pyogenes, ATCC700294; read-out: Minimal Inhibitory Concentrations S. pyogenes ATCC 700294

Row | Structure (SMILES) | MIC [1] [µM] | MIC [2, 5] [µM] | MIC [3, 6] [µM] | MIC [4, 7] [µM] | IC50 (Sa-ClpP) [µM] | MIC [2, 8] [µM] | MIC [3, 9] [µM] | MIC [4, 10] [µM] | IC50 (Sa-ClpP; displacement of FP probe ADEP 2591 from Sa-ClpP, read-out: ADEP Displacement IC50) [µM]
1 | C[C@@H]1C[C@H]2C(=O)O[C@@H](C)[C@H](NC(=O)[C@H](Cc3cc(F)cc(F)c3)NC(=O)Nc3ccc4c(c3)N(C)CC4)C(=O)N3CCC[C@H]3C(=O)N3CCCC[C@H]3C(=O)N[C@@H](C)C(=O)N2C1 [Compound 321, (S)-3-(3,5-difluorophenyl)-2-(3-(1-methylindolin-6-yl)ureido)-N-((2R,6S,8aS,14aS,20S,21S,23aS)-2,6,21-trimethyl-5,8,14,19,23-pentaoxooctadecahydro-1H,5H,14H,19H-pyrido[2,1-i]dipyrrolo[2,1-c:2′,1′-l][1]oxa[4,7,10,13]tetraazacyclo-hexadecin-20-yl)propanamide] ({X2-CO}-[Phe(3,5-F2)][aThr]P[Pip]A[Pro(4R-Me)]; ester 2-C) | 0.313 (≈ 0.266 µg/mL) | 0.156 (≈ 0.132 µg/mL) | 0.313 (≈ 0.266 µg/mL) | 0.313 (≈ 0.266 µg/mL) | 8.23 ± 0.7 |  |  |  | 
2 | C[C@@H]1C[C@H]2C(=O)O[C@@H](C)[C@H](NC(=O)[C@H](Cc3cc(F)cc(F)c3)NC(=O)Nc3ccc4c(c3)CCN4C)C(=O)N3CCC[C@H]3C(=O)N3CCOC[C@H]3C(=O)N[C@@H](C)C(=O)N2C1 [Compound 312, (S)-3-(3,5-difluorophenyl)-2-(3-(1-methylindolin-5-yl)ureido)-N-((6aS,12S,13S,15aS,17R,21S,23aS)-13,17,21-trimethyl-6,11,15,20,23-pentaoxooctadecahydro-6H,11H,15H-[1,4]oxazino[3,4-i]dipyrrolo[2,1-c:2′,1′-l][1]oxa[4,7,10,13]tetraazacyclo-hexadecin-12-yl)propanamide] ({NH(1-Me-indolin-5-yl)-CO}-[Phe(3,5-F2)][aThr]P[Morpholine(3S-CO)]A[Pro(4R-Me)]; ester 2-C) | 0.156 (≈ 0.133 µg/mL) | 0.078 (≈ 0.0664 µg/mL) | 0.313 (≈ 0.266 µg/mL) | 0.156 (≈ 0.133 µg/mL) | 6.3 ± 0.4 |  |  |  | 
3 | Cc1ccc(NC(=O)N[C@@H](Cc2ccccc2)C(=O)N[C@H]2COC(=O)[C@@H]3C[C@@H](C)CN3C(=O)[C@H](C)NC(=O)[C@@H]3CCCCN3C(=O)[C@@H]3CCCN3C2=O)cc1C [Compound 206, (S)—N-((2R,6S,8aS,14aS,20S,23aS)-2,6-dimethyl-5,8,14,19,23-pentaoxooctadecahydro-1H,5H,14H,19H-pyrido[2,1-i]dipyrrolo[2,1-c:2′,1′-l][1]oxa[4,7,10,13]tetraazacyclohexadecin-20-yl)-2-(3-(3,4-dimethylphenyl)ureido)-3-phenylpropanamide] | 0.39 (≈ 0.301 µg/mL) | 0.39 (≈ 0.301 µg/mL) | < 0.2 | < 0.2 | 7.1 ± 0.3 |  |  |  | 
4 | C[C@@H]1C[C@H]2C(=O)O[C@@H](C)[C@H](NC(=O)[C@H](Cc3cc(F)cc(F)c3)NC(=O)Nc3ccc(Cl)cc3F)C(=O)N3CCC[C@H]3C(=O)N3CCOC[C@H]3C(=O)N[C@@H](C)C(=O)N2C1 [Compound 314, (S)-2-(3-(4-chloro-2-fluorophenyl)ureido)-3-(3,5-difluorophenyl)-N-((6aS,12S,13S,15aS,17R,21S,23aS)-13,17,21-trimethyl-6,11,15,20,23-pentaoxooctadecahydro-6H,11H,15H-[1,4]oxazino[3,4-i]dipyrrolo[2,1-c:2′,1′-l][1]oxa[4,7,10,13]tetraazacyclo-hexadecin-12-yl)propanamide] ({NH(4-Cl-2-F-phenyl)-CO}-[Phe(3,5-F2)][aThr]P[Morpholine(3S-CO)]A[Pro(4R-Me)]; ester 2-C) | < 0.02 |  |  |  | 7.2 ± 0.3 | < 0.02 | < 0.02 | < 0.02 | 
5 | C[C@H]1C[C@H]2C(=O)O[C@@H](C)[C@H](NC(=O)[C@H](Cc3cc(F)cc(F)c3)NC(=O)Nc3ccc(OC(F)(F)F)cc3)C(=O)N3CCC[C@H]3C(=O)N3CCOC[C@H]3C(=O)N[C@@H](C)C(=O)N2C1 [Compound 201, (S)-3-(3,5-difluorophenyl)-2-(3-(4-(trifluoromethoxy)phenyl)ureido)-N-((6aS,12S,13S,15aS,17S,21S,23aS)-13,17,21-trimethyl-6,11,15,20,23-pentaoxooctadecahydro-6H,11H,15H-[1,4]oxazino[3,4-i]dipyrrolo[2,1-c:2′,1′-l][1]oxa[4,7,10,13]tetraazacyclohexadecin-12-yl)propanamide] ({NH(4-OCF3-phenyl)-CO}-[Phe(3,5-F2)][aThr]P[Morpholine(3S-CO)]A[Pro(4S-Me)]; ester 2-C) | 0.049 (≈ 0.0431 µg/mL) |  |  |  |  | 0.024 (≈ 0.0211 µg/mL) | 0.024 (≈ 0.0211 µg/mL) | 0.098 (≈ 0.0862 µg/mL) | 6.1 ± 0.4
6 | C[C@@H]1C[C@H]2C(=O)O[C@@H](C)[C@H](NC(=O)[C@H](Cc3cc(F)cc(F)c3)NC(=O)Nc3ccc(Cl)cc3F)C(=O)N3CCC[C@H]3C(=O)N3CCCC[C@H]3C(=O)N[C@@H](C)C(=O)N2C1 [Compound 307, (S)-2-(3-(4-chloro-2-fluorophenyl)ureido)-3-(3,5-difluorophenyl)-N-((2R,6S,8aS,14aS,20S,21S,23aS)-2,6,21-trimethyl-5,8,14,19,23-pentaoxooctadecahydro-1H,5H,14H,19H-pyrido[2,1-i]dipyrrolo[2,1-c:2′,1′-l][1]oxa[4,7,10,13]tetraazacyclo-hexadecin-20-yl)propanamide] ({NH(4-Cl-2-F-phenyl)-CO}-[Phe(3,5-F2)][aThr]P[Pip]A[Pro(4R-Me)]; ester 2-C) | 0.039 (≈ 0.033 µg/mL) |  |  |  | 7.8 ± 0.4 | 0.039 (≈ 0.033 µg/mL) | 0.039 (≈ 0.033 µg/mL) | 0.156 (≈ 0.132 µg/mL) | 
7 | CCc1ccc(NC(=O)N[C@@H](Cc2cc(F)cc(F)c2)C(=O)N[C@@H]2C(=O)N3CCC[C@H]3C(=O)N(C)[C@@H]([C@@H](C)O)C(=O)N[C@@H](C)C(=O)N3C[C@H](C)C[C@H]3C(=O)O[C@H]2C)cc1 [Compound 42, (S)-3-(3,5-difluorophenyl)-2-(3-(4-ethylphenyl)ureido)-N-((2R,6S,9S,11aS,17S,18S,20aS)-9-((R)-1-hydroxyethyl)-2,6,10,18-tetramethyl-5,8,11,16,20-pentaoxohexadecahydro-1H,5H,16H-dipyrrolo[2,1-c:2′,1′-l][1]oxa[4,7,10,13]tetraazacyclohexadecin-17-yl)propanamide] ({NH(4-Et-phenyl)-CO}-[Phe(3,5-F2)][aThr]P[NMeT]A[Pro(4R-Me)]; ester 2-C) | 0.05 (≈ 0.0413 µg/mL) |  |  |  | 7.12 ± 0.2 | 0.02 (≈ 0.0165 µg/mL) | 0.01 (≈ 0.00826 µg/mL) | 0.05 (≈ 0.0413 µg/mL) | 
8 | C[C@@H]1C[C@H]2C(=O)OC[C@H](NC(=O)[C@H](Cc3cc(F)cc(F)c3)NC(=O)Nc3ccc(Cl)cc3F)C(=O)N3CCC[C@H]3C(=O)N3CCN(C)C[C@H]3C(=O)N[C@@H](C)C(=O)N2C1 [Compound 330, (S)-2-(3-(4-chloro-2-fluorophenyl)ureido)-3-(3,5-difluorophenyl)-N-((6aS,12S,15aS,17R,21S,23aS)-2,17,21-trimethyl-6,11,15,20,23-pentaoxooctadecahydro-2H,6H,11H,15H-pyrazino[2,1-i]dipyrrolo[2,1-c:2′,1′-l][1]oxa[4,7,10,13]tetraazacyclohexadecin-12-yl)propanamide] ({NH(4-Cl-2-F-phenyl)-CO}-[Phe(3,5-F2)]SP[Piperazine(2S-CO,4-Me)]A[Pro(4R-Me)]; ester 2-C) | 0.078 (≈ 0.0661 µg/mL) |  |  |  | 3.74 ± 0.2 | 0.078 (≈ 0.0661 µg/mL) | < 0.02 | 0.078 (≈ 0.0661 µg/mL) | 
9 | Cc1ccc(NC(=O)N[C@@H](Cc2cc(F)cc(F)c2)C(=O)N[C@@H]2C(=O)N3CCC[C@H]3C(=O)N(C)[C@@H]([C@@H](C)OP(=O)(O)O)C(=O)N[C@@H](C)C(=O)N3C[C@@H](C)C[C@H]3C(=O)O[C@H]2C)cc1 [Compound 188, (R)-1-((2S,6S,9S,11aS,17S,18S,20aS)-17-((S)-3-(3,5-difluorophenyl)-2-(3-(p-tolyl)ureido)propanamido)-2,6,10,18-tetramethyl-5,8,11,16,20-pentaoxohexadecahydro-1H,5H,16H-dipyrrolo[2,1-c:2′,1′-l][1]oxa[4,7,10,13]tetraazacyclohexadecin-9-yl)ethyl dihydrogen phosphate] ({NH(4-Me-phenyl)-CO}-[Phe(3,5-F2)][aThr]P[NMepT]A[Pro(4S-Me)]; ester 2-C) | 25 | 25 | 13 | 50 | 13.7 ± 0.6 |  |  |  | 
